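GI50 is the concentration that inhibits growth by half. TGI is the concentration that stops growth completely.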
Experiments:
Assay in all cases: NCI tumour cell line growth inhibition, 384-well format
[1] = system: SN12C renal
[2] = system: UACC-62 melanoma
[3] = system: MDA-MB-435 melanoma
[4] = system: ACHN renal
[5] = system: SR leukemia
[6] = system: OVCAR-8 ovarian
[7] = system: U251 glioblastoma
[8] = system: HCT-116 colon
[9] = system: BT-549 breast
[10] = system: HCC-2998 colon
[11] = system: HL-60(TB) leukemia
[12] = system: HOP-62 NSCLC
[13] = system: CCRF-CEM leukemia
[14] = system: SW-620 colon
[15] = system: NCI-H460 NSCLC
[16] = system: MOLT-4 leukemia
[17] = system: K-562 leukemia
[18] = system: SF-295 CNS
[19] = system: SK-MEL-5 melanoma
[20] = system: OVCAR-3 ovarian
[21] = system: LOX IMVI melanoma
[22] = system: IGROV1 ovarian
[23] = system: SK-MEL-2 melanoma
[24] = system: NCI-H23 lung
[25] = system: UO-31 renal
[26] = system: 786-0 renal
[27] = system: RXF 393 renal
[28] = system: TK-10 renal
[29] = system: SF-268 CNS
[30] = system: SNB-19 CNS
[31] = system: A549 NSCLC
[32] = system: HT29 colon
[33] = system: RPMI-8226 leukemia
[34] = system: PC-3 prostate
[35] = system: NCI-H522 lung
[36] = system: MDA-MB-468 breast
[37] = system: SK-MEL-28 melanoma
[38] = system: NCI-H322M lung
[39] = system: HCT-15 colon
[40] = system: MCF7 breast
[41] = system: MALME-3M melanoma
[42] = system: COLO 205 colon
[43] = system: UACC-257 melanoma
[44] = system: M14 melanoma
[45] = system: SF-539 CNS
[46] = system: MDA-MB-231 breast
[47] = system: SK-OV-3 ovarian
[48] = system: KM12 colon

## CN(C)C/C=C/C(=O)Nc1ccc(C(=O)N2CCC[C@@H](Nc3ncc(Cl)c(-c4c[nH]c5ccccc45)n3)C2)cc1
[1]
  GI50: 46.8 nM
  TGI: 222 nM
[2]
  GI50: 92.7 nM
  TGI: 321 nM
[3]
  GI50: 27 nM
  TGI: 90.4 nM
[4]
  GI50: 1890 nM
  TGI: 11.2 µM
[5]
  GI50: 16.4 nM
  TGI: 30.3 nM
[6]
  GI50: 149 nM
  TGI: 398 nM
[7]
  GI50: 48.2 nM
  TGI: 399 nM
[8]
  GI50: 31 nM
  TGI: 1170 nM
[9]
  GI50: 16.4 nM
  TGI: 37.6 nM
[10]
  GI50: 17.8 nM
  TGI: 38.1 nM
[11]
  GI50: 22.7 nM
  TGI: 37.4 nM
[12]
  GI50: 159 nM
  TGI: 581 nM
[13]
  GI50: 28 nM
  TGI: 74.5 nM
[14]
  GI50: 71.4 nM
  TGI: 410 nM
[15]
  GI50: 184 nM
  TGI: 424 nM
[16]
  GI50: 21.6 nM
  TGI: 42.9 nM
[17]
  GI50: 39.7 nM
  TGI: 840 nM
[18]
  GI50: 274 nM
  TGI: 767 nM
[19]
  GI50: 28.3 nM
  TGI: 135 nM
[20]
  GI50: 18 nM
  TGI: 38.2 nM
[21]
  GI50: 25.6 nM
  TGI: 48 nM
[22]
  GI50: 22.9 nM
  TGI: 69.5 nM
[23]
  GI50: 19.9 nM
  TGI: 48.8 nM
[24]
  GI50: 27.4 nM
  TGI: 117 nM
[25]
  GI50: 2190 nM
  TGI: 5.38 µM
[26]
  GI50: 241 nM
  TGI: 683 nM
[27]
  GI50: 24.5 nM
  TGI: 77.7 nM
[28]
  GI50: 389 nM
  TGI: 14.7 µM
[29]
  GI50: 20.5 nM
  TGI: 44.7 nM
[30]
  GI50: 33.3 nM
  TGI: 1420 nM
[31]
  GI50: 294 nM
  TGI: 967 nM
[32]
  GI50: 165 nM
  TGI: 478 nM
[33]
  GI50: 151 nM
  TGI: 285 nM
[34]
  GI50: 46.3 nM
  TGI: 371 nM
[35]
  GI50: 19 nM
  TGI: 36.3 nM
[36]
  GI50: 17.7 nM
  TGI: 33.7 nM
[37]
  GI50: 20.8 nM
  TGI: 48 nM
[38]
  GI50: 27.4 nM
  TGI: 67.8 nM
[39]
  GI50: 3.05 µM
  TGI: 9.82 µM
[40]
  GI50: 26.6 nM
  TGI: 1290 nM
[41]
  GI50: 19.6 nM
  TGI: 39.4 nM
[42]
  GI50: 19 nM
  TGI: 42.9 nM
[43]
  GI50: 41.9 nM
  TGI: 197 nM
[44]
  GI50: 106 nM
  TGI: 279 nM
[45]
  GI50: 20.1 nM
  TGI: 43.6 nM
[46]
  GI50: 25.4 nM
  TGI: 72.3 nM
[47]
  GI50: 38.6 nM
  TGI: 352 nM
[48]
  GI50: 34.7 nM
  TGI: 160 nM

Source: PubChem BioAssay (NCI)
